Measurements from paper PMC11273930, “Bioactive Bioxanthracene and Cyclodepsipeptides from the Entomopathogenic Fungus Blackwellomyces roseostromatus BCC56290” (Antibiotics, 2024).
≈ marks a conversion by molar mass, not a printed value. Where “and” joins values, the source holds several entries; their conditions need not be identical. Equal values may be shown once. Read-outs that look alike come from different tables or passages of the source. Where a SMILES comes first, the peptide text is derived from it. [ ]: non-standard residue; d: D form. PhLac = O=C(O)[C@@H](O)Cc1ccccc1; NMeA = CN[C@@H](C)C(=O)O

Columns and labels:
[1] = tested on: Mycobacterium smegmatis (ATCC 700084); experiment: Antimicrobial assay (MIC); assay type: cell-based; design: key to MIC (µg/mL): -: no inhibition observed
Method: (§1) The antimicrobial activity of the isolated secondary metabolites was determined using our established protocol, against clinically relevant microorganisms obtained from the German Collection of Microorganisms and Cell Cultures (DSMZ, Braunschweig, Germany). These included Staphylococcus aureus (DSM 346), Bacillus subtilis (DSM 10), Acinetobacter baumanii (DSM 30008), Escherichia coli (DSM 1116), Chromobacterium violaceum (DSM 30191), Pseudomonas aeruginosa (PA14), Mycolicibacterium smegmatis (ATCC 700084), Candida albicans (DSM 1665), Mucor hiemalis (DSM 2656), Rhodotorula glutinis (DSM 10134), Schizosaccharomyces pombe (DSM 70572) and Pichia anomala (DSM 6766). Nystatin was used as an antifungal positive control whereas oxytetracycline, ciprofloxacin, gentamicin, and kanamycin were used as positive controls against Gram-positive and Gram-negative bacteria.

[2] = tested on: Schizosaccharomyces pombe (DSM 70572); experiment: Antimicrobial assay (MIC); assay type: cell-based; design: key to MIC (µg/mL): -: no inhibition observed
Method: as §1

[3] = tested on: Chromobacterium violaceum (DSM 30191); experiment: Antimicrobial assay (MIC); assay type: cell-based; design: key to MIC (µg/mL): -: no inhibition observed
Method: as §1

[4] = tested on: Escherichia coli (DSM 1116); experiment: Antimicrobial assay (MIC); assay type: cell-based; design: key to MIC (µg/mL): -: no inhibition observed
Method: as §1

[5] = tested on: Pichia anomala (DSM 6766); experiment: Antimicrobial assay (MIC); assay type: cell-based; design: key to MIC (µg/mL): -: no inhibition observed
Method: as §1

[6] = tested on: Pseudomonas aeruginosa (PA14); experiment: Antimicrobial assay (MIC); assay type: cell-based; design: key to MIC (µg/mL): -: no inhibition observed
Method: as §1

[7] = tested on: Candida albicans (DSM 1665); experiment: Antimicrobial assay (MIC); assay type: cell-based; design: key to MIC (µg/mL): -: no inhibition observed
Method: as §1

[8] = tested on: Rhodotorula glutinis (DSM 10134); experiment: Antimicrobial assay (MIC); assay type: cell-based; design: key to MIC (µg/mL): -: no inhibition observed
Method: as §1

[9] = tested on: Mucor hiemalis (DSM 2656); experiment: Antimicrobial assay (MIC); assay type: cell-based; design: key to MIC (µg/mL): -: no inhibition observed
Method: as §1

[10] = tested on: Bacillus subtilis (DSM 10); experiment: Antimicrobial assay (MIC); assay type: cell-based; design: key to MIC (µg/mL): -: no inhibition observed
Method: as §1

[11] = tested on: Staphylococcus aureus (DSM 346); experiment: Antimicrobial assay (MIC); assay type: cell-based; design: key to MIC (µg/mL): -: no inhibition observed
Method: as §1

[12] = tested on: Acinetobacter baumanii (DSM 30008); experiment: Antimicrobial assay (MIC); assay type: cell-based; design: key: -: no inhibition observed
Method: as §1

Caenorhabditis elegans = experiment: Nematicidal activity assay; assay type: in vivo; conditions: 18 h
Method: The nematicidal activity assay was conducted following a previously described procedure with slight modifications. C. elegans was cultured on nematode growth medium (NGM) containing 3 g NaCl, 20 g agar, 2.5 g peptone, 1 mL 1 M CaCl2, 25 mL of 1 M (pH 6.0) KPO4, 1 mL 1 M MgSO4, and 1 mL cholesterol (5 mg/mL in ethanol) per liter of medium. Plates were coated with Escherichia coli strain OP50, which served as the food source for nematodes. Synchronization of the nematode population was performed using a high egg density plate (~120 h). The plate was rinsed three times with 4 mL of 0.9% NaCl solution and then transferred to a 15 mL falcon tube. The nematode suspension was centrifuged at 1000 rpm for 3 min, and the supernatant was discarded. This procedure was repeated until a clear nematode suspension was obtained. After the last washing step, 2 mL of the suspension was mixed with 5 mL of bleaching solution (1 mL sodium hypochlorite solution, 0.5 mL 5 M NaOH, and 3.5 mL Milli-Q water). The solution was gently shaken for approximately 5 min to break down the nematode tissue, and monitored under the microscope. The reaction was stopped by adding 7 mL 0.9% NaCl solution when traces of adults were still visible. Subsequently, the suspension was centrifuged at 2500 rpm for 2 min and washed 3 times as previously described. After the final washing step, the supernatant was removed, and the volume was adjusted to 7 mL with 0.9% NaCl solution. The nematode egg suspension was incubated at 23 °C on a rotary shaker at 80 rpm for 18 h. The hatched nematodes were transferred to a fresh NGM plate supplemented with E.coli OP50. After 50–70 h, the J4 and adult C. elegans were washed from the plate as mentioned above. The nematode concentration was determined and diluted to approximately 1000 nematodes/mL.
Pure compounds were tested at concentrations of 10, 50, and 100 μg/mL in 48-well microtiter plates. The compounds, dissolved in MeOH, were added to the well plate and subsequently dried under nitrogen. After complete evaporation of the solvent, 300 μL of the nematode suspension (1000 nematodes/mL) was added to the compounds. Each treatment was replicated three times. MeOH was used as the negative control while 1 μg/mL Ivermectin served as the positive control. Nematodes were monitored 15 min after inoculation, and the plates were incubated at 24 °C and 150 rpm for 18 h. After incubation, both alive and dead nematodes were counted in three replicates under a stereomicroscope, and the mortality rate was calculated. Erect and non-moving nematodes were considered dead. […] The observed percentage of dead nematodes was corrected by considering the natural mortality observed in the negative control, using the Schneider-Orelli formula [30].

[13] = tested on: KB3.1 (cervix) endocervical adenocarcinoma; assay type: cell-based, human
Method: (§2) In vitro cytotoxic activity of the isolated compounds was tested by applying the MTT (3-(4,5-dimethylthiayol-2-yl)-2,5-diphenyltetrazolium bromide) assay as previously reported. The mammalian cell lines used in the tests were sourced from DSMZ and included mouse fibroblasts (L929) and endocervical adenocarcinoma (KB3.1), human lung carcinoma (A549), breast adenocarcinoma (MCF-7), human ovarian cancer (SKOV-3), prostate carcinoma (PC-3), and epidermoid carcinoma cells (A431).

[14] = tested on: L929 (murine) mouse fibroblasts; experiment: Cytotoxicity (MTT) assay; assay type: cell-based
Method: as §2

[15] = tested on: PC-3 (prostate) carcinoma; experiment: Cytotoxicity (MTT) assay; assay type: cell-based; conditions: Homo sapiens, read-out: IC50, Positive Control Epothilone B (nM)
Method: as §2, with “(A431). Epothilone B was used as the positive control.” for “(A431).”

[16] = tested on: MCF-7 (breast) adenocarcinoma; experiment: Cytotoxicity (MTT) assay; assay type: cell-based; conditions: Homo sapiens, MCF7, read-out: IC50, Positive Control Epothilone B (nM)
Method: as §2, with “(A431). Epothilone B was used as the positive control.” for “(A431).”

[17] = tested on: A549 (lung) human lung carcinoma; experiment: Cytotoxicity (MTT) assay; assay type: cell-based; conditions: A549, read-out: IC50, Positive Control Epothilone B (nM)
Method: as §2, with “(A431). Epothilone B was used as the positive control.” for “(A431).”

[18] = tested on: A431 (skin) epidermoid carcinoma cells; experiment: Cytotoxicity (MTT) assay; assay type: cell-based; conditions: Homo sapiens, A-431, read-out: IC50, Positive Control Epothilone B (nM)
Method: as §2, with “(A431). Epothilone B was used as the positive control.” for “(A431).”

[19] = 10 µg/mL, J4 and adult C. elegans, 24 °C, corrected by Schneider-Orelli formula vs methanol control, mean ± SD (n ≥ 3), < 0: less active than negative control
[20] = 50 µg/mL, J4 and adult C. elegans, 24 °C, corrected by Schneider-Orelli formula vs methanol control, mean ± SD (n ≥ 3)
[21] = 100 µg/mL, J4 and adult C. elegans, 24 °C, corrected by Schneider-Orelli formula vs methanol control, mean ± SD (n ≥ 3)
[22] = MTT assay, KB3.1 (cervix), read-out: IC50

Row | Molecule | MIC (µg/mL) [1] | MIC (µg/mL) [2] | MIC (µg/mL) [3] | MIC (µg/mL) [4] | MIC (µg/mL) [5] | MIC (µg/mL) [6] | MIC (µg/mL) [7] | MIC (µg/mL) [8] | MIC (µg/mL) [9] | MIC (µg/mL) [10] | MIC (µg/mL) [11] | MIC (µg/mL) [12] | Corrected mortality rate (%) (Caenorhabditis elegans; [19]) | Corrected mortality rate (%) (Caenorhabditis elegans; [20]) | Corrected mortality rate (%) (Caenorhabditis elegans; [21]) | IC50 [13, 22] [µM] | IC50 [14] [µM] | also measured
1 | 3S,4S-HMDA-L-Trp^1-L-Trp^2-L-Phe (lariat or depsi) [Compound 3, Beauveriolide U, previously undescribed cyclic tetradepsipeptide, HMDA-Trp-Trp-Phe, C42H49N5O5] | - | - | - | - | - | - | - | - | - | - | - | - | < 0 | 6.0 ± 1.5 | 32.1 ± 7.0% | > 35 | > 35 | 
2 | CC(C)C[C@@H]1NC(=O)[C@H](Cc2ccccc2)OC(=O)[C@H](C)N(C)C(=O)[C@H](CC(C)C)NC(=O)[C@H](Cc2ccccc2)NC(=O)[C@H](C)N(C)C1=O [Compound 4, Cardinalisamide D] (cyclo([PhLac]L[NMeA]FL[NMeA])) | - | - | - | - | - | - | - | - | - | - | - | - | 13.7 ± 5.2 | 14.2 ± 4.9 | 23.4 ± 7.4% |  | > 35 | IC50 [13]: 36.2 µM
3 | C/C(=C\c1csc(C)n1)[C@@H]1C[C@@H]2O[C@]2(C)CCC[C@H](C)[C@H](O)[C@@H](C)C(=O)C(C)(C)[C@@H](O)CC(=O)O1 [Epothilone B] |  |  |  |  |  |  |  |  |  |  |  |  |  |  |  |  |  | IC50 [15]: 0.09 nM; IC50 [16]: 0.07 nM; IC50 [17]: 0.05 nM; IC50 [18]: 0.06 nM
4 | CNC(C)C1CCC(N)C(OC2C(N)CC(N)C(OC3OCC(C)(O)C(NC)C3O)C2O)O1 (stereo not drawn) [Gentamycin, reference compound] |  |  |  |  |  |  |  |  |  |  |  |  |  |  |  |  |  | MIC ([3]; DSM30191): 1.7 µg/mL (≈ 3.56 µM); MIC ([4]; DSM1116): 0.83 µg/mL (≈ 1.74 µM); MIC [6]: 0.42 µg/mL (≈ 0.879 µM); MIC ([11]; DSM346): 0.42 µg/mL (≈ 0.879 µM)
5 | NC[C@H]1O[C@H](O[C@H]2[C@H](O)[C@@H](O[C@H]3O[C@H](CO)[C@@H](O)[C@H](N)[C@H]3O)[C@H](N)C[C@@H]2N)[C@H](O)[C@@H](O)[C@@H]1O [Kanamycin, reference compound] |  |  |  |  |  |  |  |  |  |  |  |  |  |  |  |  |  | MIC [1]: 0.1 µg/mL (≈ 0.206 µM)
6 | C[C@@H]1[C@H](O)[C@@H](C)/C=C/C=C/CC/C=C/C=C/C=C/C=C/C(O[C@H]2O[C@H](C)[C@@H](O)[C@H](N)[C@@H]2O)CC2O[C@](O)(CC(O)C(O)CCC(O)CC(O)CC(O)CC(=O)O[C@H]1C)CC(O)C2C(=O)O (stereo partly drawn) [Nystatin, reference compound] |  |  |  |  |  |  |  |  |  |  |  |  |  |  |  |  |  | MIC [2]: 2.1 µg/mL (≈ 2.27 µM); MIC [5]: 4.2 µg/mL (≈ 4.54 µM); MIC [7]: 2.1 µg/mL (≈ 2.27 µM); MIC [8]: 1.0 µg/mL (≈ 1.08 µM); MIC [9]: 4.2 µg/mL (≈ 4.54 µM)
7 | CN(C)[C@@H]1C(O)=C(C(N)=O)C(=O)[C@@]2(O)C(O)=C3C(=O)c4c(O)cccc4[C@@](C)(O)[C@H]3[C@H](O)[C@@H]12 [Oxytetracyclin, reference compound] |  |  |  |  |  |  |  |  |  |  |  |  |  |  |  |  |  | MIC ([10]; DSM10): 16.6 µg/mL (≈ 36.1 µM)
8 | ES-242-9 [Compound 1] | - | - | - | - | - | - | - | - | - | - | - | - | 33.4 ± 5.3 | 31.7 ± 7.1 | 51.1 ± 5.3% and 51.1% | 29.2 | > 35 | 
9 | HMDA-Trp-Ala-Phe (lariat or depsi) [Compound 2, Beauveriolide T] | - | - | - | - | - | - | - | - | - | - | - | - | 11.6 ± 6.4 | 33.1 ± 6.7 | 36.1 ± 7.3% | > 35 | > 35 | 
10 | Ivermectin [reference compound] |  |  |  |  |  |  |  |  |  |  |  |  |  |  |  |  |  | Corrected mortality rate (%) (Caenorhabditis elegans; 1 µg/mL, positive control, C. elegans, corrected mortality, mean ± SD): 87.4 ± 6.5%
